Test results taken from ChEMBL document CHEMBL1149067, “Ochrindoles A-D: new bis-indolyl benzenoids from the sclerotia of Aspergillus ochraceus NRRL 3519” (J Nat Prod, 1994).

Key:
[1] = test system: Helicoverpa zea; experiment: Toxicity against Helicoverpa zea larvae assessed as weight gain relative to control; format: organism-based; settings: in vivo
[2] = test system: Carpophilus; experiment: Toxicity against Carpophilus hemipterus assessed as feeding reduction at 200 ppm relative to control; format: organism-based; design: scale not given: the % may be the effect or the level left; settings: in vivo
[3] = test system: Bacillus subtilis; experiment: Antimicrobial activity against Bacillus subtilis at 100 ug/disk by standard disk assay; format: functional; settings: read-out: IZ

| SMILES | Activity [1] | Activity [2] | zone of inhibition at 100 µg/disc [3] |
| --- | --- | --- | --- |
| COc1c(CC=C(C)C)c(-c2c[nH]c3ccccc23)c(OC)c(O)c1-c1c[nH]c2ccccc12 [OCHRINDOLE A] | 30% | 20% | 15 mm |
| COc1c(C/C=C(\C)CO)c(-c2c[nH]c3ccccc23)c(OC)c(O)c1-c1c[nH]c2ccccc12 [OCHRINDOLE B] |  |  | 15 mm |
| COc1c(CC=C(C)C)c(-c2c[nH]c3ccccc23)c(O)c(O)c1-c1c[nH]c2ccccc12 [OCHRINDOLE C] |  |  | 15 mm |
| CC(C)=CCC1=C(c2c[nH]c3ccccc23)C(=O)C(O)=C(c2c[nH]c3ccccc23)C1=O [OCHRINDOLE D] |  |  | 15 mm |
